Measurements: patent US6599541B1, “Composition for treatment of drug resistant bacterial infections and a method of treating drug resistant bacterial infections” (priority 1999, dated 2003)
≈ marks a conversion by molar mass, not a printed value. Like-named read-outs stand apart in the source and are kept apart here.

Tests used:
[1] = system: Enterobacter spp.; assay: Broth Macro Dilution Test, MIC and MBC; format: cell-based; conditions: antibiotic alone
From the text: (§1) This was done by estimation of the Minimum Inhibitory Concentration (MIC) and Minimum Bactericidal Concentration (MBC) on the selected isolates by a Broth Macro Dilution Test.
(§2) While conducting these tests, the guidelines given by the National committee of Clinical Laboratory Standards 1995 protocols were employed. Cation Supplemented Mueller Hinton Broth was used as medium for all organisms excepting for β haemolytic streptococci for which, Todd Hewit's Broth was used as medium.
(§3) The following concentrations of antibiotics were tested to determine MIC and MBC.
(§4) A minimum inhibitory concentration is the lowest level of antibiotic needed to cause an inhibition to bacterial growth in culture medium whereas, the minimum bactericidal concentration is the lowest concentration of antibiotic to achieve a 100% killing of bacteria. Thus, these two values are the practical indices of intensity of bacterial resistance to a given antibiotic. On the other hand, a break-even point of any antibiotic indicates the attainable blood levels after an administration of full dose, in human/animal body. Thus, this point indicates the practical dosage of administering any given antibiotic effectively and beyond this point, even if an antibiotic is found to act effectively in experimental situation—such dose cannot be administered in a clinical situation.

[2] = system: Escherichia coli; assay: Broth Macro Dilution Test, MIC and MBC; format: cell-based; conditions: resistant to Ciprofloxacin, antibiotic alone, read-out: minimum bactericidal concentration (MBC)
From the text: as §1, §2, §3, §4

[3] = system: Klebsiella pneumoniae; assay: Broth Macro Dilution Test, MIC and MBC; format: cell-based; conditions: Klebsiella pneumoniae, antibiotic alone
From the text: as §1, §2, §3
(§5) Co-trimoxazole (Sulpharnethoxazole/Trimethoprim/μg/μg per ml)
as §4

[4] = system: Salmonella senftenberg; assay: Broth Macro Dilution Test, MIC and MBC; format: cell-based; conditions: Salmonella enterica, Example 13: strain from burn wound swab culture, antibiotic alone
From the text: as §1, §2, §3, §5, §4

[5] = system: Staphylococcus aureus; assay: Broth Macro Dilution Test, MIC and MBC; format: cell-based; conditions: Example 12: strain from non-healing burn wound swab culture, antibiotic alone
Protocol: as §1
(§6) Cation Supplemented Mueller Hinton Broth was used as medium for all organisms excepting for β haemolytic streptococci for which, Todd Hewit's Broth was used as medium.
as §3, §4

[6] = system: Enterobacter spp.; assay: Broth tube test of NE with antibiotic at break point, percentage of killing; format: cell-based; conditions: for bacterial growth in control tubes: NE and antibiotic added individually; for bactericidal effect: antibiotic 4 μg/ml (break point) combined with NE 125, 250, 500, 1000 μg/ml
Protocol: (§7) Since all the study isolates are resistant to the concerned antibiotics, each antibiotic is taken at its breakpoint concentration, (the highest serum concentration of that particular antibiotic reached after the maximum therapeutic dose in-vivo). The break points for various antibiotics are as follows:
(§8) Preparation of Neem Extract: Stock solution of neem extract (1 mg/ml) was prepared, filtered and autoclaved. It was used in 4 concentrations—1000 μg/ml; 500 μg/ml; 250 μg/ml; 125 μg/ml.
(§9) A set of four tubes with variable concentrations of the extract is prepared and to each of these tubes, the break point concentration of antibiotics is added. Now, these sets are inoculated with the study isolate in the same manner as per the broth dilution procedure. A set of six controls is inoculated with each isolate—in parallel with the main experiment.
(§10) 2. Only antibiotic solution
(§11) 3. Medium and antibiotic solution with inoculum
(§12) 5. Only Neem extract at 250 μg/ml
(§13) 6. Medium with Neem Extract and inoculum
(§14) Reading the test All the tests and control tubes are observed for visible turbidity of growth first. Since all the study isolates were earlier confirmed to be resistant to the antibiotics, the bacterial growth is expected at the breakpoint concentration of the antibiotic. Any reduction in the turbidity as compared to the control tube no. 3 is noted as a possible additive or synergistic effect of the neem extract with the antibiotic. In absence of such effect, the tubes may show growth matching with the control no. 4.
(§15) In case of a positive result, further sub-culturing was taken up, on solid media for colony counts with a calibrated loop. The colony counts could be noted by a semi quantitative method as 101 to 10^5 CFU/ml (Colony forming units). This is finally expressed as the percentage of killing as compared to the colony count obtained with control no. 4. Usually control tubes no. 3, 4 and 6 had similar colony counts.

[7] = system: Escherichia coli; assay: as above; format: cell-based; conditions: for bacterial growth in control tubes: NE and antibiotic added individually; for bactericidal effect: antibiotic 4 μg/ml (break point) combined with NE 125, 250, 500, 1000 μg/ml
Protocol: as §7, §8, §9, §10, §11, §12, §13, §14, §15

[8] = system: Klebsiella pneumoniae; assay: as above; format: cell-based; conditions: for bacterial growth in control tubes: NE and antibiotic added individually
Protocol: as §7, §8, §9, §10, §11, §12, §13, §14, §15

[9] = system: Salmonella senftenberg; assay: as above; format: cell-based; conditions: Example 13 strain
Protocol: as §7, §8, §9, §10, §11, §12, §13, §14, §15

[10] = system: Staphylococcus aureus; assay: as above; format: cell-based; conditions: Example 12 strain
Protocol: as §7, §8, §9, §10, §11, §12, §13, §14, §15

[11] = highest serum concentration reached after the maximum therapeutic dose in-vivo; cited from earlier work
[12] = system: β-haemolytic streptococci; assay: Broth Macro Dilution Test, MIC and MBC; format: cell-based; conditions: antibiotic alone, read-out: minimum inhibitory concentration (MIC)
Protocol: as §1, §6, §3, §4

[13] = system: β-haemolytic streptococci; assay: Broth tube test of NE with antibiotic at break point, percentage of killing; format: cell-based; conditions: for bacterial growth in control tubes: NE and antibiotic added individually
Protocol: as §7, §8, §9, §10, §11, §12, §13, §14, §15

[14] = system: Staphylococcus aureus; assay: Agar Dilution Method of Sensitivity testing, NE alone and NE + antibiotic; format: cell-based; conditions: for Growth Patterns after addition of NE: no. of cultures +++ (growth) / Growth Patterns after addition of NE: no. of cultures −−− (inhibition of growth): resistant S. aureus cultures, 48 hours
Protocol: Two kinds of investigations were carried-out using these bacterial isolates—using an Agar Dilution Method of Sensitivity testing.
i) To ascertain whether, NE can work as an antibacterial substance on its own. For this purpose, a stock-solution of NE was prepared and was sterilized as described in the preliminary experiments.
ii) This stock-solution was dispensed into the culture medium (Mueller Hinton Agar) so as to provide while; the medium was in liquid form. Four different concentrations of NE, viz.
iii) This medium was poured into petri dishes and allowed to solidify. Resistant cultures were inoculated on to these plates and after incubation for 48 hours, the growth patterns were assessed.
iv) The experiments were run in triplicate, for each concentration—as per standard practices of microbiological testing procedures.
i) The culture medium (Mueller Hinton Agar) was melted and distributed into a number of test tubes.
ii) The stock solution of NE was dispensed into these test tubes in four different concentrations viz.
iii) In the same medium, one of the antibiotics under investigation was also added so as to provide a variable concentration (at break-even point concentration) as described below:
iv) The culture medium containing NE extract+the antibiotic were poured into petri dishes and allowed to solidify.
v) The resistant bacterial strains were inoculated onto these plates, incubated for 48 hours and the growth patterns were studied on each plate.
These cultures were obtained various clinical samples, such as sputum, non-healing infected wounds, throat swabs etc.

[15] = Example 11: isolate from Endotracheal catheter tip culture
[16] = antibiotic at break-even point + NE 125 μg/mL
[17] = antibiotic at break-even point + NE 250 μg/mL
[18] = antibiotic at break-even point + NE 500 μg/mL
[19] = antibiotic at break-even point + NE 1000 μg/mL

With O=C(O)c1cn(C2CC2)c2cc(N3CCNCC3)c(F)cc2c1=O [Ciprofloxacin] the MBC ([1]; Enterobacter, Example 10: isolate from Endotracheal Catheter Tip culture, read-out: minimum bactericidal concentration (MBC)) was over 128 µg/mL, the MIC ([1]; Enterobacter, Example 10: isolate from Endotracheal Catheter Tip culture, read-out: minimum inhibitory concentration (MIC)) was 32 µg/mL (≈ 96.6 µM) and the “minimum bactericidal concentration (MBC)” value [1, 15] was over 128 µg/mL. The “minimum inhibitory concentration (MIC)” value [1, 15] was 32 µg/mL (≈ 96.6 µM), the MBC ([2]; Example 1: isolate from wound infection) was 64 µg/mL (≈ 193 µM) and the MBC ([2]; Example 2: isolate from endotracheal catheter tip culture) was over 128 µg/mL. It also gave an MBC ([3]; Example 3: strain from non-healing burn wound, read-out: MBC) of over 64 µg/mL, an MIC ([3]; Example 3: strain from non-healing burn wound, read-out: MIC) of 16 µg/mL (≈ 48.3 µM) and an MBC ([3]; Example 4: strain from wound swab culture, read-out: MBC) of over 128 µg/mL. It also gave an MIC ([3]; Example 4: strain from wound swab culture, read-out: MIC) of 32 µg/mL (≈ 96.6 µM), an MBC ([3]; Example 5: isolate from Endotracheal Catheter Tip culture, read-out: minimum bactericidal concentration (MBC)) of over 128 µg/mL and an MIC ([3]; Example 5: isolate from Endotracheal Catheter Tip culture, read-out: minimum inhibitory concentration (MIC)) of 32 µg/mL (≈ 96.6 µM). It also gave an MBC ([3]; Example 6: isolate from Endotracheal Catheter tip culture, read-out: minimum bactericidal concentration (MBC)) of over 128 µg/mL, an MIC ([3]; Example 6: isolate from Endotracheal Catheter tip culture, read-out: minimum inhibitory concentration (MIC)) of 32 µg/mL (≈ 96.6 µM) and an MBC ([3]; Example 7: isolate from endotracheal catheter tip culture, read-out: minimum bactericidal concentration (MBC)) of over 128 µg/mL. The MIC ([3]; Example 7: isolate from endotracheal catheter tip culture, read-out: minimum inhibitory concentration (MIC)) was 32 µg/mL (≈ 96.6 µM), the MBC ([4]; read-out: MBC) was over 128 µg/mL and the MIC ([4]; read-out: MIC) was 32 µg/mL (≈ 96.6 µM). For the same compound, the MBC [5] was over 128 µg/mL, the MIC [5] was 32 µg/mL (≈ 96.6 µM) and the “bacterial growth in control tubes” value ([6]; Example 10 isolate) was “unhindered”. For the same compound, the bactericidal effect ([6]; Example 10 isolate) was 80%, the “bacterial growth in control tubes” value ([6]; Example 11 isolate) was “unhindered” and the bactericidal effect ([6]; Example 11 isolate) was 50%. The “bacterial growth in control tubes” value ([7]; Example 1 isolate) was “unhindered”, the bactericidal effect ([7]; Example 1 isolate) was 100% and the “bacterial growth in control tubes” value ([7]; Example 2 isolate) was “unhindered”. For the same compound, the bactericidal effect ([7]; Example 2 isolate) was 40%, the killing ([8]; Example 3 strain, antibiotic at break point in combination with NE, uniform at 1000, 500, 250, 125 μg/ml) was 99% and the killing ([8]; Example 4 strain, antibiotic at break-even concentration with NE, uniform at all four NE concentrations) was 90%. The “bacterial growth in control tubes” value ([8]; Example 5 isolate) was “unhindered”, the bactericidal effect ([8]; Example 5 isolate, antibiotic 4 μg/ml (break-even point) combined with NE 125, 250, 500, 1000 μg/ml) was 90% and the “bacterial growth in control tubes” value ([8]; Example 6 isolate) was “unhindered”. The bactericidal effect ([8]; Example 6 isolate, antibiotic 4 μg/ml (break point) combined with NE 125, 250, 500, 1000 μg/ml) was 80%, the “bacterial growth in control tubes” value ([8]; Example 7 isolate) was “unhindered” and the bactericidal effect ([8]; Example 7 isolate, antibiotic 4 μg/ml (break point) combined with NE 125, 250, 500, 1000 μg/ml) was 50%. The killing ([9]; antibiotic added to 1000 μg/ml NE) was 50%, the killing effect ([9]; antibiotic with 500 μg/ml NE) was “somewhat low” and the killing effect ([9]; antibiotic with NE at other concentrations (below 500 μg/ml)) was “not found”. For the same compound, the killing ([10]; antibiotic 4 μg/ml in combination with 250 μg/ml and 125 μg/ml NE) was 80%, the bactericidal effect ([10]; antibiotic 4 μg/ml with 1000 μg/ml, 500 μg/ml of NE) was 20% and the break point [11] was 4 µg/mL.
Compound CC[C@H]1OC(=O)[C@H](C)[C@@H](O[C@H]2C[C@@](C)(OC)[C@@H](O)[C@H](C)O2)[C@H](C)[C@@H](O[C@@H]2O[C@H](C)C[C@H](N(C)C)[C@H]2O)[C@](C)(O)C[C@@H](C)C(=O)[C@H](C)[C@@H](O)[C@]1(C)O [Erythromycin] has an MBC [5] of over 256 µg/mL, an MIC ([12]; Example 8: isolate from throat swab culture) of 64 µg/mL (≈ 87.2 µM) and an MIC ([12]; Example 9: isolate from sputum culture) of 32 µg/mL (≈ 43.6 µM). For the same compound, the “bacterial growth in control tubes” value ([13]; Example 8 isolate) was “unhindered”, the bactericidal effect ([13]; Example 8 isolate, antibiotic 4 μg/ml combined with NE 1000 μg/ml) was 99% and the bactericidal effect ([13]; Example 8 isolate, antibiotic 4 μg/ml combined with NE 125, 250 and 500 μg/ml) was 100%. For the same compound, the “bacterial growth in control tubes” value ([13]; Example 9 isolate) was “unhindered”, the bactericidal effect ([13]; Example 9 isolate, antibiotic at break even point combined with NE 250 μg/ml and 125 μg/ml) was 99% and the killing ([13]; Example 9 isolate, antibiotic at break-even point combined with NE 500 μg/ml or 1000 μg/ml) was 50%. The “clinical strains sensitized by NE to the antibiotic” value ([14]; 102 resistant S. aureus cultures, NE + antibiotic) was 50%, the “Growth Patterns after addition of NE: no. of cultures +++ (growth)” value (“Growth Patterns … no. of cultures +++ (growth)” for short) [14, 16] was 72 and the “Growth Patterns after addition of NE: no. of cultures −−− (inhibition of growth)” value [14, 16] was 30. The “Growth Patterns … no. of cultures +++ (growth)” value [14, 17] was 66, the “Growth Patterns after addition of NE: no. of cultures −−− (inhibition of growth)” value [14, 17] was 36 and the “Growth Patterns … no. of cultures +++ (growth)” value [14, 18] was 61. For the same compound, the “Growth Patterns after addition of NE: no. of cultures −−− (inhibition of growth)” value [14, 18] was 41, the “Growth Patterns … no. of cultures +++ (growth)” value [14, 19] was 51 and the “Growth Patterns after addition of NE: no. of cultures −−− (inhibition of growth)” value [14, 19] was 51. The break point [11] was 4 µg/mL.
